# Reference: US11801284B2, “Compositions and methods for treating motor neuron diseases” (The Trustees of Columbia University in the City of New York, priority 2017, dated 2023)
# Assays:
# SMN = SMN levels in spinal cord tissue of SMA mice by western blotting; type: in vivo; conditions: PND10 SMA mice, western blot, β-tubulin loading control; FIG. 7
# Method: PND10 mice of the indicated genotypes were euthanized, and the spinal cord tissue extracted to determine SMN levels by western blotting. β-tubulin was used as a loading control. Band intensities were determined using the NIH ImageJ software.
# S. cerevisae = experiment: in vivo microautophagy assay (vacuolar membrane invagination and intraluminal vesicle formation in yeast); type: cell-based; conditions: in vivo study employing WT and Hspa8^G470R proteins
# Excerpt: Expt. 2B: Does the G470R mutation affect Hspa8-dependent microautophagy? Hspa8-dependent microautophagy relies on the ability of the protein to bind the lysosomal/endosomal membrane. In so doing, Hspa8 deforms the membrane to form tubules, a phenomenon that can be quantified using a “tubulation” assay^36. […] To test this, we will subject the two proteins and a control, Hspa8^3KA, that fails to deform membranes^36, to the tubulation assay. Essentially, bacterial lysate from E. coli over-expressing the different Hspa8 molecules will be combined with fluorescently labeled giant unilamellar vesicles (GUVs) made from a defined mixture of lipids that roughly mimic synaptic membranes^49, and the ability of the proteins to trigger membrane deformation/tubule formation will be assessed by fluorescence microscopy. To complement these in vitro experiments, we will assess the ability of Hspa8^G470R protein to deform membranes in vivo. For this, the protein and relevant controls will be separately expressed in S. cerevisae and vacuolar membrane invagination and intraluminal vesicle formation determined using a co-expressed Vba1-GFP construct as a marker^50.
# luciferase = luciferase refolding assay (chaperone activity); type: biochemical; conditions: crude yeast lysate from cells transfected with Hspa8^G470R or WT construct; FIG. 4
# Excerpt: Expt. 2A: Does the G470R mutation affect Hspa8 chaperone activity? There is a fine balance between the chaperone activity of Hspa8, which involves ATP and the co-chaperone proteins Sgt (small […] tetratricopeptide repeat-containing protein) and CSP (cysteine string protein), and its role in microautophagy, which is effected independently of ATP and the co-chaperones^36. Altering the ratio of Hspa8 with respect to its co-chaperones, or introducing mutations in certain Hspa8 domains, can shift the balance towards or away from microautophagy and thus alter neurotransmission at the NMJ. For instance, mutations in the ATPase domain disrupt chaperone activity but leave the role of Hspa8 in microautophagy intact. In contrast, mutations in the C-terminal domain of Hspa8, which mediate the interaction of the protein with the lysosomal/endosomal membrane, abolish microautophagy but fail to affect the ability of the protein to refold proteins (chaperone activity). […] To test this, we will examine the ability of Hspa8^G470R to refold luciferase. […] The bioluminescence from the luciferase will be assayed, following the addition of Luciferase Assay reagent (Promega), at regular intervals in a luminometer or plate reader. […]
substance,measurement,setting,value
Hspa8^G470R: mutant Hsp70 family member protein Hspa8 with G470R missense mutation in the substrate binding domain,SMN level in spinal cord tissue,SMN,increases SMN
same,competence in microautophagy assay,S. cerevisae,competent
same,chaperone activity (efficiency relative to lysate containing WT Hspa8),luciferase,only a third as efficient
